Earlier results in patent US8053472B2, “Use of the acetyl L-carnitine in association with the biotin for the treatment of patients with type 2 insulin-resistant diabetes mellitus” (Sigma-Tau Industrie Farmaceutiche Riunite S.p.A., priority 2001, dated 2011).

Test system: hypertriglyceridemic rats with noninsulin-dependent diabetes mellitus
Conditions: high doses of biotin added to the diet

SMILES: O=C(O)CCCC[C@@H]1SC[C@@H]2NC(=O)N[C@@H]21 [biotin]
- altered tolerance to glucose: improves
